The subject of one assay is S. pyogenes (CCUG 4207). Briefly: MMC99 assay, S. pyogenes. The class given is cell-based. Here is the method: (§1) The antimicrobial effects of the peptides 232 (SEQ ID NO: 78), and 220 (SEQ ID NO:67) were analysed by MMC99 (minimal microbicidal concentration) assay against S. aureus (CCUG 1800), MRSA (CCUG 41879), P. aeruginosa (ATCC 15442), E. coli (CCUG 31246), S. pyogenes (CCUG 4207), P. acnes (CCUG 1794T), S. epidermidis (ATCC12228), K. pneumoniae (ATCC 13883), A. baumannii (ATCC 19606), and C. albicans (ATCC 64549). The peptides were purchased from Biopeptide Company (San Diego, Calif., USA) and Bachem AG (Bubendorf, Switzerland) and results are presented in Table 8A and 8B respectively.
(§2) Peptides were serially diluted in two different assay medium, 1% BHI medium (brain-heart infusion medium) or 50% heat inactivated simulated wound fluid (SWF), and thereafter incubated with the microorganisms for 2 hours. Drops of the suspension were placed on blood agar plates. The MMC99 values, i.e. the lowest peptide concentration needed to achieve a 99% reduction of viable microorganisms, were recorded. As presented in Table 8, all the peptides have the ability to kill microorganisms frequently appearing in infections.

Assay [1] has as its system MRSA (CCUG 41879). Briefly: MMC99 assay, MRSA. The class given is cell-based. The method, then:
as §1, §2

Assay [2] has as its system P. aeruginosa (ATCC 15442). Kind of assay: MMC99 assay, P. aeruginosa. Type of assay: cell-based. Here is the method:
as §1, §2

The subject of assay [3] is MRSA (CCUG 41879). Briefly: In vivo antimicrobial effect in excision wound model in rats. On the set-up: species or system rat. As to conditions: peptide in H2O 0.1, 0.5 and 2 mg/ml, single administration, 2 hours. The text has this:
FIG. 4. Dose-response effect of peptide 232 (SEQ ID NO 78)(A) and peptide 220 (SEQ ID NO 67)(B) on bacterial colonization of infected excision wounds in rats. […] Results are presented as relative bacterial survival (%) compared to control group±SEM (n=15 wounds). Statistical significance was estimated by Student's t test. *=p<0.05, **=p<0.01, ***=p<0.001.
The in vivo antimicrobial effects of the peptide 232 (SEQ ID NO: 78), and the peptide 220 (SEQ ID NO:67) were investigated in an excision wound model in rats. The wounds were inoculated with methicillin resistant S. aureus (MRSA) for two hours, followed by a single administration of peptide or control (H2O) for two hours before termination and harvest of the bacteria.

Another assay deals with S. aureus (CCUG 1800). Kind of assay: Minimal microbicidal concentration (MMC99) assay, S. aureus. Type of assay: cell-based. The settings on record: for MMC99: S. aureus, Example 3; for MMC99 μM in 1% BHI medium / MMC99 μM in 50% SWF: screen 2, 2 hours; for MMC99 μM in 50% SWF: 50% heat inactivated simulated wound fluid. The method, boiled down:
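Log-phase bacteria in 1% BHI were exposed to two-fold peptide dilutions for 2 h at 37 °C, in 1% BHI (160–1.25 μM, or 400–0.78 μM) or 50% heat-inactivated simulated wound fluid (400–0.78 μM). Suspension drops were plated on blood agar overnight. MMC99 is the lowest concentration giving 99% reduction of viable bacteria.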

Entries after “also recorded” stand apart in the source; their conditions may differ.

Consider QSLARKLFQWLRNLRKVA [Peptide 220], for which the MMC99 in the assay with S. pyogenes (CCUG 4207) (1% BHI) is less than 3 µg/mL; in the assay with S. pyogenes (CCUG 4207) (50% SWF), 50 µg/mL; in the assay on MRSA (CCUG 41879) [1] (1% BHI), 6 µg/mL; in the assay on MRSA (CCUG 41879) [1] (50% SWF), 200 µg/mL; in assay [2] (1% BHI), 7 µg/mL; in assay [2] (50% SWF), greater than 200 µg/mL. Also, the values for the MMC99 in the assay on S. aureus (CCUG 1800) (1% BHI) and in the assay on S. aureus (CCUG 1800) (50% SWF) were 7 µg/mL and 28 µg/mL, respectively. Also, in the assay with MRSA (CCUG 41879) [3], the “bacterial colonization of infected excision wounds (bacterial counts vs control)” value is recorded as “significant reduction in bacterial counts; also recorded: pronounced antimicrobial effect”. In the assay with S. aureus (CCUG 1800), the “MMC99 μM in 1% BHI medium” value was determined as 12.5 µM. The “MMC99 μM in 50% SWF” value with S. aureus (CCUG 1800) is 25 µM.

With RRLWRRWMRKVL [Peptide 232], the MMC99 is less than 3 µg/mL in the assay on S. pyogenes (CCUG 4207) (1% BHI); greater than 200 µg/mL in the assay on S. pyogenes (CCUG 4207) (50% SWF); 6 µg/mL in the assay on MRSA (CCUG 41879) [1] (1% BHI); 100 µg/mL in the assay with MRSA (CCUG 41879) [1] (50% SWF); 5 µg/mL in assay [2] (1% BHI); greater than 176 µg/mL in assay [2] (50% SWF). Besides, the MMC99 in the assay with S. aureus (CCUG 1800) (1% BHI) stood at 5 µg/mL; in the assay on S. aureus (CCUG 1800) (50% SWF) it was 44 µg/mL. For the same sequence, the “bacterial colonization of infected excision wounds (bacterial counts vs control)” value in the assay with MRSA (CCUG 41879) [3] is recorded as “significant reduction in bacterial counts; also recorded: pronounced antimicrobial effect”. Besides, in the assay with S. aureus (CCUG 1800), the “MMC99 μM in 1% BHI medium” value is 12.5 µM. Moreover, the “MMC99 μM in 50% SWF” value with S. aureus (CCUG 1800) is 25 µM.

These data come from US20140031296A1, “NEW SYNTHETIC PEPTIDES AND THEIR USE” (PERGAMUM AB, priority 2011, published 2014).
